From patent US20080227796A1, “7-Amino-6-Hetaryl-1,2,4-Triazolo[1,5-A]Pyrimidine Compounds and the Use Thereof for Controlling Pathogenic Fungi” (BASF Aktiengesellschaft, priority 2004, published 2008)

Tested on: Puccinia recondita
Test: Protective activity against Puccinia recondita on wheat (brown rust of wheat)
Format: in vivo
Details: 250 ppm, protective: wheat seedlings sprayed the day before inoculation, visual rating after a further 7 days; untreated plants 90% infected
Protocol: The respective active compound was prepared as a stock solution with 25 mg of active compound which was made up to 10 ml with a mixture of acetone and/or dimethyl sulfoxide (DMSO) and the emulsifier Uniperol® EL (wetting agent having emulsifying and dispersing action based on ethoxylated alkylphenols) in a volume ratio solvent/emulsifier of 99 to 1. The solution was then made up to 100 ml with water. This stock solution was diluted to the active compound concentration stated below using the solvent/emulsifier/water mixture described.
Leaves of potted wheat seedlings of the cultivar “Kanzler” were sprayed to runoff point with an aqueous suspension having the active compound concentration stated below. The next day, the treated plants were inoculated with a spore suspension of brown rust of wheat (Puccinia recondita). The plants were then placed in a chamber with high atmospheric humidity (90 to 95%) at 20 to 22° C. for 24 hours. During this time, the spores germinated and the germ tubes penetrated into the leaf tissue. The next day, the test plants were returned to the greenhouse and cultivated at temperatures between 20 and 22° C. and 65 to 70% relative atmospheric humidity for a further 7 days. The extent of the rust fungal development on the leaves was then determined visually.

Compound: Cc1cc(-c2c(Cl)nc3ncnn3c2N[C@H](C)C(C)C)ccn1 [Example 59]
- infection: no infection
